Data from paper PMC11624893 (Journal of the American Chemical Society, 2024).
Positions of bridges follow the written chain, without caps; N, C: chain ends. Non-standard residues stand in square brackets, D forms with d. Residues, ends and D or L forms follow the SMILES beside them. *: point of attachment. X1 = CC[C@H](C)CCCCC(=O)*; Dab = NCC[C@H](N)C(=O)O

Tests used:
M. avium 700898 [1] = experiment: microbe, parasite or virus in culture; settings: Mycobacterium avium, 700898, read-out: Minimum Inhibitory Concentration (MIC)
P. aeruginosa PA14 = experiment: Minimum inhibitory concentration; type: cell-based; settings: for Minimum Inhibitory Concentration (MIC): P. aeruginosa PA14, Gram-negative
S. aureus 29213 [2] = experiment: Minimum inhibitory concentration; type: cell-based; settings: for Minimum Inhibitory Concentration (MIC): S. aureus 29213, Gram-positive, actively growing
K. pneumoniae 700603 [3] = experiment: microbe, parasite or virus in culture; settings: Klebsiella pneumoniae, 700603, read-out: Minimum Inhibitory Concentration (MIC)
A. baumannii 19606 = experiment: Minimum inhibitory concentration; type: cell-based; settings: for Minimum Inhibitory Concentration (MIC): A. baumannii 19606, Gram-negative
E. faecium 51559 [4] = experiment: microbe, parasite or virus in culture; settings: Enterococcus faecium, VRE, read-out: Minimum Inhibitory Concentration (MIC)
E. coli 25922 [5] = experiment: Minimum inhibitory concentration; type: cell-based; settings: for Minimum Inhibitory Concentration (MIC): E. coli 25922, Gram-negative
M. smegmatis 700084 [6] = experiment: Minimum inhibitory concentration; type: cell-based; settings: M. smegmatis 700084, mycobacteria
M. abscessus 19977 = experiment: Minimum inhibitory concentration; type: cell-based; settings: M. abscessus 19977, mycobacteria
K. pneumoniae 700603 [7] = settings: K. pneumoniae 700603, Gram-negative
M. avium 700898 [8] = settings: M. avium 700898, mycobacteria
E. faecium 51559 [9] = settings: E. faecium 51559, vanA-type resistance reference strain (VRE)
[10] = test system: biofilm-associated E. coli 25922; experiment: Minimum biofilm eradication concentration; type: cell-based
[11] = test system: biofilm-associated M. smegmatis 700084; experiment: Minimum biofilm eradication concentration; type: cell-based
[12] = test system: biofilm-associated S. aureus 29213; experiment: Minimum biofilm eradication concentration; type: cell-based
S. aureus = experiment: Peptidoglycan precursor accumulation, LC-MS; type: cell-based; settings: treatment, cell lysis
E. coli 25922 [13] = experiment: Outer membrane permeability, 1-N-phenylnapthylamine; type: cell-based; settings: E. coli 25922, 5e at 80 μM (10x MIC)
[14] = test system: panel containing Gram-positive, Gram-negative, and mycobacterial microorganisms; experiment: MIC assay, statements over the whole panel; type: cell-based; settings: Gram-negative organisms (E. coli, A. baumannii, K. pneumoniae, P. aeruginosa)
M. smegmatis = experiment: Peptidoglycan precursor accumulation, LC-MS; type: cell-based; settings: treatment, cell lysis
M. smegmatis 700084 [15] = experiment: Ethidium bromide; type: cell-based; settings: M. smegmatis 700084, 8 μM (1x MIC)
S. aureus 29213 [16] = experiment: Membrane permeability, propidium iodide; type: cell-based; settings: S. aureus 29213, exponential-phase cells in HEPES-Glucose buffer
[17] = pre-formed biofilm of E. coli 25922, Table 2
[18] = pre-formed biofilms of E. coli 25922, as given in the text
[19] = biofilm-associated S. aureus 29213, as given in the text

Compound | Minimum Inhibitory Concentration (MIC) (M. smegmatis 700084 [6]) [µM] | Minimum Inhibitory Concentration (MIC) (P. aeruginosa PA14) [µM] | Minimum Inhibitory Concentration (MIC) (M. abscessus 19977) [µM] | Minimum Inhibitory Concentration (MIC) (K. pneumoniae 700603 [7]) [µM] | Minimum Inhibitory Concentration (MIC) (S. aureus 29213 [2]) [µM] | Minimum Inhibitory Concentration (MIC) (M. avium 700898 [8]) [µM] | Minimum Inhibitory Concentration (MIC) (A. baumannii 19606) [µM] | Minimum Inhibitory Concentration (MIC) (E. faecium 51559 [9]) [µM] | Minimum Inhibitory Concentration (MIC) (E. coli 25922 [5]) [µM] | minimum biofilm eradication concentration (MBEC) [10, 17] [µM] | minimum biofilm eradication concentration (MBEC) [10, 18] | minimum biofilm eradication concentration (MBEC) [12, 19] [µM] | also measured
CN(C)C(=N)N=C(N)N [Metformin, metformin] | – | – | – | – | – | – | – | – | – | – | – | – | MIC (M. avium 700898 [1]): > 512 µM; MIC (P. aeruginosa PA14; Pseudomonas aeruginosa, PA14, read-out: Minimum Inhibitory Concentration (MIC)): > 512 µM; MIC (S. aureus 29213 [2]; Staphylococcus aureus, 29213, read-out: Minimum Inhibitory Concentration (MIC)): > 512 µM; MIC (K. pneumoniae 700603 [3]): > 512 µM; MIC (A. baumannii 19606; Acinetobacter baumannii, 19606, read-out: Minimum Inhibitory Concentration (MIC)): > 512 µM; MIC (E. faecium 51559 [4]): > 512 µM; MIC (E. coli 25922 [5]; Escherichia coli, 25922, read-out: Minimum Inhibitory Concentration (MIC)): > 512 µM
CN[C@H](CC(C)C)C(=O)N[C@H]1C(=O)N[C@@H](CC(N)=O)C(=O)N[C@H]2C(=O)N[C@H]3C(=O)N[C@H](C(=O)N[C@H](C(=O)O)c4cc(O)cc(O)c4-c4cc3ccc4O)[C@H](O[C@H]3C[C@](C)(N)[C@@H](O)[C@H](C)O3)c3ccc(c(Cl)c3)Oc3cc2cc(c3O[C@@H]2O[C@H](CO)[C@@H](O)[C@H](O)[C@H]2O[C@H]2C[C@](C)(NCc3ccc(-c4ccc(Cl)cc4)cc3)[C@@H](O)[C@H](C)O2)Oc2ccc(cc2Cl)[C@H]1O [Oritavancin, oritavancin] | 32 | >512 | 128 | >512 | 1 | 128 | 512 | 2 | >512 | >128 | no activity | 2 to 4 | minimum biofilm eradication concentration (MBEC) ([11]; pre-formed biofilms of M. smegmatis 700084, as given in the text): > 256 µM; minimum biofilm eradication concentration (MBEC) ([12]; pre-formed biofilm of S. aureus 29213, Table 2): 2 to 4 µM
CC[C@H](C)CCCCC(=O)N[C@@H](CCN)C(=O)N[C@H](C(=O)N[C@@H](CCN)C(=O)N[C@H]1CCNC(=O)[C@H]([C@@H](C)O)NC(=O)[C@H](CCN)NC(=O)[C@H](CCN)NC(=O)[C@H](CC(C)C)NC(=O)[C@@H](Cc2ccccc2)NC(=O)[C@H](CCN)NC1=O)[C@@H](C)O [Polymyxin B, polymyxin B] (X1-[Dab]T[Dab][Dab][Dab][dF]L[Dab][Dab]T; lactam 4-C (inferred); N-terminus assumed) | – | – | – | – | – | – | – | – | – | 16 to 32 | 16 to 32 µM | – | –
CO[C@H]1/C=C/O[C@@]2(C)Oc3c(C)c(O)c4c(O)c(c(/C=N/N5CCN(C)CC5)c(O)c4c3C2=O)NC(=O)/C(C)=C\C=C\[C@H](C)[C@H](O)[C@@H](C)[C@@H](O)[C@@H](C)[C@H](OC(C)=O)[C@@H]1C [Rifampicin, rifampicin] | – | – | – | – | – | – | – | – | – | – | – | 16 to 32 | –
CN[C@H](CC(C)C)C(=O)N[C@H]1C(=O)N[C@@H](CC(N)=O)C(=O)N[C@H]2C(=O)N[C@H]3C(=O)N[C@H](C(=O)N[C@H](C(=O)O)c4cc(O)cc(O)c4-c4cc3ccc4O)[C@H](O)c3ccc(c(Cl)c3)Oc3cc2cc(c3O[C@@H]2O[C@H](CO)[C@@H](O)[C@H](O)[C@H]2O[C@H]2C[C@](C)(N)[C@H](O)[C@H](C)O2)Oc2ccc(cc2Cl)[C@H]1O [Vancomycin, vancomycin] | 8 | 256 to 512 | 32 to 64 | 256 to 512 | 1 | 16 | 64 to 128 | 512 | 128 to 256 | – | 256 µM | > 512 | accumulation of peptidoglycan precursor (UDP-MurNAc pentapeptide) (S. aureus): accumulation of the UDP-MurNAc pentapeptide; NPN fluorescence (outer membrane destabilization) (E. coli 25922 [13]): no increase in fluorescence; typical MIC against Gram-negative organisms [14]: ≥ 128 µM; accumulation of peptidoglycan precursor (UDP-MurNGlyc pentapeptide) (M. smegmatis): related UDP-MurNGlyc pentapeptide in M. smegmatis; EtBr fluorescence (M. smegmatis 700084 [15]): did not influence EtBr fluorescence; minimum biofilm eradication concentration (MBEC) ([11]; pre-formed biofilm of M. smegmatis 700084, Table 2): 64 µM; PI fluorescence (membrane permeabilization) (S. aureus 29213 [16]): no increase in fluorescence
Gentamycin | – | – | – | – | – | – | – | – | – | 8 | – | – | –
